Measurements reported in paper PMC3740138, “Bile acids induce apoptosis selectively in androgen-dependent and -independent prostate cancer cells” (PeerJ, 2013).
One block for each compound: values may come before it.

How the values were obtained:
LNCaP cells [1] = experiment: Percentage of intact cells (Hoechst 33342 / propidium iodide counting), LNCaP; assay type: cell-based, human; conditions: for Concentrations decreasing cell viability / number of intact cells: 48 h, tested 10–500 µM; for Effect of caspase inhibitor on LCA-induced cell death: 24 h co-exposure, 40 µM LCA + 10 µM inhibitor
Experimental: (§1) For apoptotic and necrotic cell death measurements, LNCaP and PC-3 cells were seeded at densities of 1 × 10^5 and 0.5 × 10^5 cells/ml, respectively, in 24-well plates in 2% stripped-FBS. Cells were then treated with several concentrations of bile acids in the presence (LNCaP) or absence (PC-3) of 0.1 nM DHT. […] After a 15 min incubation at 37°C, cells were observed and counted under a Nikon Eclipse (TE-2000U) inverted fluorescent microscope at 20× magnification. […] To measure mitochondrial membrane potential (MMP), cells were treated with LCA for 1, 4 or 8 h, and tetramethylrhodamine ethyl ester (TMRE) was added to each well at a final concentration of 50 nM. TMRE is a cell permeable, positively charged dye that accumulates in active negatively charged mitochondria.
(§2) All experiments were performed in at least triplicate using cells after various passages and the data are presented as mean ± SEM. Statistically significant differences (p < 0.05) between various treatments and untreated cells were determined using a two-tailed Student t-test with Bonferroni correction for multiple comparisons. IC50 values for inhibition of cell viability were calculated using a sigmoidal curve-fitting model of log-inhibitor concentration versus normalized inhibition response, with variable slope (GraphPad Prism v5.03, GraphPad Software, San Diego, CA).

PC-3 cells [2] = experiment: Percentage of intact cells (Hoechst 33342 / propidium iodide counting), PC-3; assay type: cell-based, human; conditions: for Concentrations decreasing cell viability / number of intact cells: PC-3, 48 h, tested 10–500 µM; for Effect of caspase inhibitor on LCA-induced cell death: PC-3, 24 h co-exposure, 50 µM LCA + 10 µM inhibitor
Experimental: as §1, §2

[3] = test system: LNCaP human prostate cancer cells; experiment: Extra/intracellular distribution by mass spectrometry, LNCaP; assay type: in vitro ADME; conditions: for % of compound recovered, Cells / % of compound recovered, Medium: LNCaP, 24 h, mean ± SD
Experimental: (§3) Mass spectrometry-based analysis of LCA and UDCA was performed as previously reported ([Bourque & Titorenko, 2009]). […] The extracted lipids were dried under nitrogen and resuspended in chloroform. Immediately prior to injection the extracted lipids were combined with a 2:1 methanol:chloroform mixture supplemented with 0.1% (v/v) ammonium hydroxide. The sample was injected directly into a Thermo Orbitrap Velos equipped with a HESI-II ion source (Thermo Scientific, Waltham, MA, USA) at a flow rate of 5 µl/min. Spectra were obtained in negative-ion mode. The source voltage was set to 4.0 kV, a capillary temperature of 275°C, a sheath gas flow of 5 (arbitrary units) and an auxiliary gas flow of 1 (arbitrary units). Acquired spectra were exported from Xcalibur software (Thermo Scientific) and then deconvoluted and deisotoped using Excel macros.

[4] = test system: PC-3 human prostate cancer cells; experiment: Extra/intracellular distribution by mass spectrometry, PC-3; assay type: in vitro ADME; conditions: for % of compound recovered, Cells / % of compound recovered, Medium: 24 h, mean ± SD
Experimental: as §3

PC-3 cells [5] = test system: PC-3 cells; set-up: method as in Choi et al., 2003; conditions: ref Choi et al., 2003; cited from earlier work
RWPE-1 cells = experiment: Percentage of intact cells (Hoechst 33342 / propidium iodide counting), RWPE-1; assay type: cell-based, human; conditions: RWPE-1, 48 h, 50 or 75 µM
LNCaP cells [6] = experiment: DHT-stimulated LNCaP cell proliferation (real-time impedance, E-plates); assay type: cell-based, human
caspase-3 [7] = experiment: Caspase-3 activity (Ac-DEVD-AFC cleavage) in LNCaP cell extracts; assay type: cell-based, human; conditions: 24 h, 25–75 µM
Experimental: (§4) PC-3 and LNCaP cells were seeded in 6-well plates at densities of 400000 or 750000 cells per well, respectively, in 0.5 ml culture medium containing 2% stripped FBS and 24 h later they were exposed to various concentrations of LCA in fresh medium for another 24 h. Proteins were then extracted from harvested cells using 1× RIPA buffer (Millipore, Billerica, MA) containing 1× protease inhibitor cocktail, centrifuged at 13,000 g for 5 min at 4°C to remove cell debris, and frozen at −80°C overnight. Protein concentrations were then quantified using a BCA protein detection kit (Thermo Scientific, Waltham, MA). Caspase activities were determined using fluorogenic caspase substrates selective for either caspase-3 (5 µM Ac-DEVD-AFC), caspase-9 (10 µM Ac-LEHD-AFC) or caspase-8 (10 µM Ac-IETD-AFC) in 10 µg of extracted protein suspended in caspase reaction buffer (20 mM PIPES at pH 7.2, 30 mM NaCl, 10 mM DTT, 1 mM EDTA, 0.1% CHAPS, 10% sucrose). The time-dependent release of 7-amino-4-trifluoromethyl coumarin (AFC) was measured using a SpectroMax M5 microplate reader (Molecular Devices, Sunnydale, CA) at an excitation wavelength of 400 nm and an emission wavelength of 505 nm. Measurements were recorded at 2 min intervals for 90 min. A standard curve of AFC fluorescence was used to calculate the amount of AFC released (in picomoles) during each reaction.

caspase-3 [8] = experiment: Caspase-3 activity (Ac-DEVD-AFC cleavage) in PC-3 cell extracts; assay type: cell-based, human; conditions: PC-3, 24 h, 25–75 µM
Experimental: as §4

caspase-8 [9] = experiment: Caspase-8 activity (Ac-IETD-AFC cleavage) in LNCaP cell extracts; assay type: cell-based, human; conditions: 24 h, 25–75 µM
Experimental: as §4

caspase-8 [10] = experiment: Caspase-8 activity (Ac-IETD-AFC cleavage) in PC-3 cell extracts; assay type: cell-based, human; conditions: PC-3, 24 h, 25–75 µM
Experimental: as §4

caspase-9 [11] = experiment: Caspase-9 activity (Ac-LEHD-AFC cleavage) in LNCaP cell extracts; assay type: cell-based, human; conditions: 24 h, 25–75 µM
Experimental: as §4

caspase-9 [12] = experiment: Caspase-9 activity (Ac-LEHD-AFC cleavage) in PC-3 cell extracts; assay type: cell-based, human; conditions: PC-3, 24 h, 25–75 µM
Experimental: as §4

PC-3 cells [13] = experiment: Mitochondrial membrane potential (TMRE), PC-3; assay type: cell-based, human; conditions: PC-3, 75 µM, as early as after 1 h
LNCaP cells [14] = experiment: Western blot of apoptosis proteins, LNCaP; assay type: cell-based, human; conditions: 24 h, 25–75 µM
Experimental: (§5) Crude protein extracts (50 µg) were resolved by electrophoresis using 10% sodium dodecyl sulfate-polyacrylamide gels and then transferred to a PVDF Immobilon-P membrane (Bio-Rad, Mississauga, ON). Blots were blocked using 5% milk powder (Selection brand, Marché Jean-Talon, Montréal, QC) and incubated with antibodies as follows: 1:250 dilution for anti-caspase-3, 1:1000 for anti-cleaved PARP, 1:1000 for anti-Bcl-2, 1:1000 for anti-Bax, and 1:1000 for anti-Bid. Immunoreactive proteins were exposed to anti-rabbit horseradish peroxidise-conjugated secondary antibodies (Millipore) that were diluted 1:5000. Antigen-antibody complexes were detected using Immobilon ECL Western Chemiluminescent HRP Substrate (Millipore) and recorded with a Versadoc imaging system (Bio-Rad). Total protein content per well was determined using 1 × Amido Black staining solution (Sigma-Aldrich).

PC-3 cells [15] = experiment: Western blot of apoptosis proteins, PC-3; assay type: cell-based, human; conditions: PC-3, 24 h
Experimental: as §5

% of compound recovered, Cells ([3]; 25 µM): 9.60 ± 3.86% | % of compound recovered, Medium ([3]; 25 µM): 90.40 ± 3.86% | % of compound recovered, Cells ([3]; 50 µM): 4.23 ± 0.10% | % of compound recovered, Medium ([3]; 50 µM): 95.77 ± 0.10% | % of compound recovered, Cells ([4]; PC-3, 50 µM): 2.44 ± 0.17% | % of compound recovered, Medium ([4]; PC-3, 50 µM): 97.56 ± 0.17% | % of compound recovered, Cells ([4]; PC-3, 75 µM): 2.43 ± 0.67% | % of compound recovered, Medium ([4]; PC-3, 75 µM): 97.57 ± 0.67%
Compound: C[C@H](CCC(=O)O)[C@H]1CC[C@H]2[C@@H]3[C@@H](O)C[C@@H]4C[C@H](O)CC[C@]4(C)[C@H]3CC[C@]12C [UDCA, ursodeoxycholic acid, reference compound]
Concentrations decreasing cell viability / number of intact cells (LNCaP cells [1]): above 300 µM | Concentrations decreasing cell viability / number of intact cells (PC-3 cells [2]): above 300 µM | Concentrations that did not result in significant cell death (PC-3 cells [5]): > 100 µM

Compound: z-IETD-fmk
Effect of caspase inhibitor on LCA-induced cell death (LNCaP cells [1]): alleviated | Effect of caspase inhibitor on LCA-induced cell death (PC-3 cells [2]): alleviated

Compound: C[C@H](CCC(=O)O)[C@H]1CC[C@H]2[C@@H]3CC[C@@H]4C[C@H](O)CC[C@]4(C)[C@H]3C[C@H](O)[C@]12C [DCA, deoxycholic acid]
Concentrations decreasing cell viability / number of intact cells (LNCaP cells [1]): above 100 µM | Concentrations decreasing cell viability / number of intact cells (PC-3 cells [2]): above 100 µM

IC50 (LNCaP cells [1]; Homo sapiens, 48 h treatment, with 0.1 nM DHT, read-out: IC50 for decrease in number of intact cells): 40.5 ± 0.07 µM | IC50 (PC-3 cells [2]; Homo sapiens, PC-3, 48 h treatment, read-out: IC50 for decrease in number of intact cells): 74.9 ± 0.25 µM | IC50 (LNCaP cells [6]; Homo sapiens, LNCaP, co-treated with 0.1 nM DHT, 72 h, read-out: IC50 for inhibition of proliferation of androgen-stimulated cells): 8.5 µM | % of nominal concentration present in extracellular medium ([3]; LNCaP cultures after 24 h): ≤ 98% | % of compound recovered, Cells ([3]; 25 µM): 2.72 ± 1.10% | % of compound recovered, Medium ([3]; 25 µM): 97.28 ± 1.10% | % of compound recovered, Cells ([3]; 50 µM): 5.85 ± 2.45% | % of compound recovered, Medium ([3]; 50 µM): 94.15 ± 2.45% | % of compound recovered, Cells ([4]; PC-3, 50 µM): 2.09 ± 0.05% | % of compound recovered, Medium ([4]; PC-3, 50 µM): 97.91 ± 0.05% | % of compound recovered, Cells ([4]; PC-3, 75 µM): 2.39 ± 1.93% | % of compound recovered, Medium ([4]; PC-3, 75 µM): 97.61 ± 1.93% | % of nominal concentration present in extracellular medium ([4]; PC-3 cultures after 24 h): ≤ 98%
Compound: C[C@H](CCC(=O)O)[C@H]1CC[C@H]2[C@@H]3CC[C@@H]4C[C@H](O)CC[C@]4(C)[C@H]3CC[C@]12C [LCA, Lithocholic acid]
Effect on viability of non-tumorigenic cells (RWPE-1 cells): without decreasing the viability | Concentrations that inhibit proliferation of AD prostate cancer cells (LNCaP cells [6]; well below those needed to induce apoptosis): 2.5 to 10 µM | Catalytic activity of caspase-3 (caspase-3 [7]): increased | Catalytic activity of caspase-3 (caspase-3 [8]): increased | Levels of active caspase-8 (caspase-8 [9]): increased levels | Levels of active caspase-8 (caspase-8 [10]): increased levels | Caspase-9 activity (caspase-9 [11]): statistically significant increases | Caspase-9 activity (caspase-9 [12]): statistically significant increases | Change in mitochondrial membrane potential (MMP) (PC-3 cells [13]): marked decrease | Effect on pro-apoptotic proteins Bax and Bid (LNCaP cells [14]): cleavage | Levels of 89 kDa PARP fragment (LNCaP cells [14]): significantly elevated | Levels of cleaved, active 17 and 20 kDa caspase-3 subunits (LNCaP cells [14]): increased levels | Levels of 89 kDa PARP fragment elevated (PC-3 cells [15]): not in PC-3 cells | Bcl-2 levels (PC-3 cells [15]; 25–75 µM): decreased levels | Effect on pro-apoptotic proteins Bax and Bid (PC-3 cells [15]; 25–75 µM): cleavage | Levels of cleaved, active 17 and 20 kDa caspase-3 subunits (PC-3 cells [15]; 25–75 µM): increased levels

Compound: z-DEVD-fmk
Effect of caspase inhibitor on LCA-induced cell death (LNCaP cells [1]): partially inhibited | Effect of caspase inhibitor on LCA-induced cell death (PC-3 cells [2]): partially inhibited

Compound: C[C@H](CCC(=O)O)[C@H]1CC[C@H]2[C@@H]3C[C@H](O)[C@@H]4C[C@H](O)CC[C@]4(C)[C@H]3CC[C@]12C [HDCA, hyodeoxycholic acid]
Concentrations decreasing cell viability / number of intact cells (LNCaP cells [1]): above 300 µM | Concentrations decreasing cell viability / number of intact cells (PC-3 cells [2]): above 300 µM

Compound: C[C@H](CCC(=O)O)[C@H]1CC[C@H]2[C@@H]3[C@H](O)C[C@@H]4C[C@H](O)CC[C@]4(C)[C@H]3CC[C@]12C [CDCA, chenodeoxycholic acid]
Concentrations decreasing cell viability / number of intact cells (LNCaP cells [1]): above 100 µM | Concentrations decreasing cell viability / number of intact cells (PC-3 cells [2]): above 100 µM | Concentrations that did not result in significant cell death (PC-3 cells [5]): > 100 µM

Compound: C[C@H](CCC(=O)O)[C@H]1CC[C@H]2[C@@H]3[C@H](O)C[C@@H]4C[C@H](O)CC[C@]4(C)[C@H]3C[C@H](O)[C@]12C [CA, cholic acid]
Concentrations decreasing cell viability / number of intact cells (LNCaP cells [1]): > 500 µM | Concentrations decreasing cell viability / number of intact cells (PC-3 cells [2]): > 500 µM
